Reference: patent US20240415819A1, “MACROCYCLIC COMPOUNDS AS PROTEASOME SUBUNIT BETA TYPE-5 INHIBITORS” (Lead Discovery Center GmbH, priority 2021, published 2024)

What was measured:
[1] = biological target: T1, β5 subunit of the human constitutive proteasome (CPS) (Homo sapiens, UniProt P28074); assay: β5 inhibition assay, human constitutive proteasome (Suc-LLVY-AMC); assay type: biochemical; details: IC50 class, Suc-LLVY-AMC substrate
T1 construct: purchased Boston Biochem E-360
Description: The enzymatic activity of the β5 subunit of the human constitutive proteasome (CPS) is analyzed. In another assay, which differs from the assay of the human constitutive proteasome only in using the human immunoproteasome (IPS) the enzymatic activity of the β5 subunit of the human immunoproteasome (IPS) is analyzed. […] Inhibition is indicated as IC50 [nM] (“-”=not measured).

HT-29 cells = assay: CellTiter-Glo luminescent cell viability assay with HT-29 cells (72h incubation); assay type: cell-based, human; details: Homo sapiens, HT-29, HT29 cells, read-out: CTG HT29
Description: Cell Titer Glo Viability Assay with HT-29 Cells (72h Incubation) The CellTiter-Glo Luminescent Cell Viability Assay (Promega) is a homogeneous method of determining the number of viable cells in culture. It is based on quantification of ATP, indicating the presence of metabolically active cells. On day 1 400 HT-29 cells per well are seeded in white 384well plates (Greiner, #781080) in 25 μl cell culture medium (DMEM (PAN-Biotech #P04-03590)+10% FCS+glutamine). After incubation for 24 h at 37° C./5% CO2 compounds or DMSO are added at different concentrations by Echo Liquid Handling Technology. Cells are further incubated in humidified chambers for 72 h at 37° C. and 5% CO2. Cells treated with the compound vehicle DMSO are used as positive controls and cells treated with 10 μM Staurosporine serve as negative controls. At day 5-72h after compound addition—the CellTiter Glo Reagent is prepared according to the instructions of the kit (Promega Inc.): Reagent is mixed 1:1 with cell culture medium. Thereon, mixture and assay plates are equilibrated at room temperature for 20 min. Equal volumes of the reagent-medium-mixture is added to the volume of culture medium present in each well. The plates are mixed at […] for 2 minutes on an orbital shaker. The microplates are then incubated at room temperature for 10 minutes for stabilization of the luminescent signal. Following incubation the luminescence is recorded on a Victor microplate reader (Perkin Elmer) using a 200 ms integration time. The data is then analyzed with Excel using the XLFIT Plugin (dose response Fit 205) for IC50-determination. As quality control the Z′-factor is calculated from 16 positive and negative control values. […] Inhibition is indicated as IC50 [nM] (“-”=not measured).

[2] = biological target: T2, β5 subunit of the human immunoproteasome (IPS) (Homo sapiens, UniProt P28062); assay: β5 inhibition assay, human immunoproteasome (Suc-LLVY-AMC); assay type: biochemical; details: IC50 class, Suc-LLVY-AMC substrate
T2 construct: purchased Boston Biochem E-370
Description: The enzymatic activity of the β5 subunit of the human constitutive proteasome (CPS) is analyzed. In another assay, which differs from the assay of the human constitutive proteasome only in using the human immunoproteasome (IPS) the enzymatic activity of the β5 subunit of the human immunoproteasome (IPS) is analyzed. Incubation of the enzyme with its fluorogenic substrate Suc-LLVY-AMC leads to liberation of the fluorescent dye AMC which can be measured with a suitable plate reader. • 100 mM HEPES pH7.5 • 50 mM NaCl • 0.02% SDS • 1 mM DTT (add fresh) • Victor X5 (Perkin Elmer) • Label: Umbeliferone (0.1s) • Excitation wavelength: 355 nm • Emission wavelength: 460 nm • 4 μl human cPS or IPS enzyme in assay buffer (final assay concentration 1 nM) or 4 μl assay buffer for negative controls • Compound addition via acoustic dispenser (Echo 520, Labcyte) • Mix and incubate @ RT for 10 min • 4 μl Suc-LLVY-AMC substrate (final assay concentration 22.6 μM) • Mix and incubate @ RT for 4 h (dark) • Stop reaction with 4 μl Bortezomib (final assay concentration 1 μM) • 15 min @ RT • Measure (Excitation 355 nm; Emission 460 nm)

[3] = system: A549 (human lung carcinoma cell line); assay: Glo assay of A549 cells (Table 3; ProteasomeGlo plating scheme); assay type: cell-based; details: Homo sapiens; A549 cells; read-out: PGLo A549
Excerpt: Inhibition is indicated as IC50 [nM] (“-”=not measured). […] • Chymotrypsin-Like Cell-Based Proteasome-GloTM Assay (Promega; […]) • Cell culture 384-well plates (Greiner BioOne; 781080) • Dispensing cassette, MultiDrop Standard tube dispensing cassette (Thermo Scientific; 24072670) • DPBS (Pan BioTech; P04-36500) • Cell culture 384-well plates (Greiner BioOne; 781080) • CPD source plate: diamond-shape plate (Labcyte; LP-0200) • Intermediate plate (Labcyte; P-05525) [table] • a. Remove the plates with cells from the incubator. • b. Take all the plates including the compound plate, intermediate plate and Staurosporine plate to the ECHO. • c. Click on “Open” in the ECHO software and select the protocol “QLI5_25ul_30 uM-Grenier”. • d. Follow the on-screen prompts and instructions once you click “Start” to insert the compound plate, intermediate plate and destination plates. • e. Change the final number of destination plates on the program. • f. Follow the on-screen prompts and instructions once you click “Start” to load the Staurosporine and destination plates. • g. Once all the compounds, DMSO and Staurosporine have been transferred, place the destination plates in a wet tissue box. • h. Place the destination plates back into the incubator and incubate at 37° C., 5% CO2 for 105 minutes. • i. Re-seal all the compound+Stauro diamond and intermediate plates and store in the dark. Chymotrypsin like ProteasomeGlo Assay • 1. Thaw the components of the ProteasomeGlo assay at room temperature including the ProteasomeGlo Buffer, the lyophilized Luciferin Detection Reagent and the Suc-LLVY-Glo Substrate. • 2. Reconstitute the Luciferin Detection Reagent in the amber coloured bottle by adding 50 ml of the ProteasomeGlo Buffer. • 3. Vortex the Suc-LLVY-Glo Substrate briefly to reconstitute the Substrate well. • 4. Spin down the Substrate and add 250 μl of the Substrate to the reconstituted Luciferin Detection Reagent from step 2. • 5. Briefly vortex the amber bottle with the mix to prepare a homogenous solution. • 6. Place the mix prepared in step 5 to sit at room temperature for 60 minutes. • 7. After 60 minutes, pipette 25 μl of the mix from step 5 into all wells with the cells. • 8. Shake the plates for 2-5 minutes to ensure the complete mixing of the ProteasomeGlo reagent with the cells. • 9. Leave the plates in the dark for 10-15 minutes. • 10. Measure the luminescence read-out using the Viktor and the protocol “Luminescence_384Well_0.2 sec”. (Note: The Protoeasome-GloTM Reagent (combined Proteasome-GloTM Substrate, Proteasome-GloTM Buffer and Luciferin Detection Reagent) can be stored at 4° C. or -20° C. for 1 month with minimal loss of activity.)

| IC50 [1] [nM] | IC50 (HT-29 cells) [nM] | IC50 [2] [nM] | IC50 [3] [nM] | Compound |
| --- | --- | --- | --- | --- |
| < 100 | < 100 | < 100 | < 100 | Cc1ccc2cc1CNC(=O)[C@H](CCc1ccccc1)NC(=O)[C@@H](NC(=O)OCc1ccccc1)CC(=O)N1CCC(CCO2)C1 (stereo partly drawn) [Compound 325, benzyl ((9S,12S)-5^4-methyl-8,11,14-trioxo-9-phenethyl-4-oxa-7,10-diaza-1(3,1)-pyrrolidina-5(1,3)-benzenacyclotetradecaphane-12-yl)carbamate] |
| < 100 | < 100 | < 100 | < 100 | Cc1ccc2cc1CNC(=O)[C@H](CCc1ccccc1)NC(=O)[C@@H](NC(=O)Cc1ccccn1)CC(=O)N1CCCC(CCO2)C1 (stereo partly drawn) [Compound 331, N-((9S,12S)-5^4-methyl-8,11,14-trioxo-9-phenethyl-4-oxa-7,10-diaza-1(3,1)-piperidina-5(1,3)-benzenacyclotetradecaphane-12-yl)-2-(pyridin-2-yl)acetamide] |
| < 100 | < 100 | < 100 | < 100 | COC(C(=O)N[C@H]1CC(=O)N2CCCC(CCOc3ccc(C)c(c3)CNC(=O)[C@H](CCc3ccccc3)NC1=O)C2)c1ccc(NC(C)=O)cc1 (stereo partly drawn) [Compound 323, 2-(4-acetamidophenyl)-2-methoxy-N-((9S,12S)-5^4-methyl-8,11,14-trioxo-9-phenethyl-4-oxa-7,10-diaza-1(3,1)-piperidina-5(1,3)-benzenacyclotetradecaphane-12-yl)acetamide] |
| < 100 | < 100 | < 100 | < 100 | Cc1ccc2cc1CNC(=O)[C@H](CCc1ccccc1)NC(=O)[C@@H](NC(=O)C(C)c1ccc3ncccc3c1)CC(=O)N1CCCC(CCO2)C1 (stereo partly drawn) [Compound 369, N-((9S,12S)-5^4-methyl-8,11,14-trioxo-9-phenethyl-4-oxa-7,10-diaza-1(3,1)-piperidina-5(1,3)-benzenacyclotetradecaphane-12-yl)-2-(quinolin-6-yl)propanamide] |

Second part, the compound before the results:

| Compound | IC50 [1] [nM] | IC50 (HT-29 cells) [nM] | IC50 [2] [nM] | IC50 [3] [nM] |
| --- | --- | --- | --- | --- |
| CCOC(C(=O)N[C@H]1CC(=O)N2CCCC(CCOc3ccc(C)c(c3)CNC(=O)[C@H](CCc3ccccc3)NC1=O)C2)c1ccc(NC(C)=O)cc1 (stereo partly drawn) [Compound 324, 2-(4-acetamidophenyl)-2-ethoxy-N-((9S,12S)-5^4-methyl-8,11,14-trioxo-9-phenethyl-4-oxa-7,10-diaza-1(3,1)-piperidina-5(1,3)-benzenacyclotetradecaphane-12-yl)acetamide] | < 100 | < 100 | < 100 | < 100 |
| CC(=O)N[C@H]1CCC(=O)N2CCC2(C)COc2ccc(C)c(c2)CNC(=O)[C@H](CCc2ccccc2)NC1=O (stereo partly drawn) [Compound 265, N-((8S,11S)-1^2,4^4-dimethyl-7,10,14-trioxo-8-phenethyl-3-oxa-6,9-diaza-1(2,1)-azetidina-4(1,3)-benzenacyclotetradecaphane-11-yl)acetamide] | – | 100 to 500 | 100 to 500 | > 5000 |
| CC(=O)N[C@H]1CCCC(=O)NCCCCOc2ccc(C)c(c2)CNC(=O)[C@H](CCc2ccccc2)NC1=O [Compound 269, N-((12S,15S)-1^4-methyl-8,13,16-trioxo-15-phenethyl-2-oxa-7,14,17-triaza-1(1,3)-benzenacyclooctadecaphane-12-yl)acetamide] | 1000 to 5000 | 1000 to 5000 | < 100 | 1000 to 5000 |
| Cc1ccc2cc1CNC(=O)[C@H](CCc1ccccc1)NC(=O)[C@@H](NC(=O)Cc1nc(-c3ccccc3)n[nH]1)CC(=O)N1CCCC(CCO2)C1 (stereo partly drawn) [Compound 328, N-((9S,12S)-5^4-methyl-8,11,14-trioxo-9-phenethyl-4-oxa-7,10-diaza-1(3,1)-piperidina-5(1,3)-benzenacyclotetradecaphane-12-yl)-2-(3-phenyl-1H-1,2,4-triazol-5-yl)acetamide] | < 100 | < 100 | < 100 | 100 to 500 |
| Cc1ccc2cc1CNC(=O)[C@H](CCc1ccccc1)NC(=O)[C@@H](NC(=O)Cc1cn3ccsc3n1)CC(=O)N1CCCC(CCO2)C1 (stereo partly drawn) [Compound 330, 2-(imidazo[2,1-b]thiazol-6-yl)-N-((9S,12S)-5^4-methyl-8,11,14-trioxo-9-phenethyl-4-oxa-7,10-diaza-1(3,1)-piperidina-5(1,3)-benzenacyclotetradecaphane-12-yl)acetamide] | < 100 | < 100 | < 100 | < 100 |
| Cc1cc2cc(c1C)CNC(=O)[C@H](CCc1ccccc1)NC(=O)CCC(=O)N1CCCC(CCO2)C1 (stereo partly drawn) [Compound 95, (9S)-5^4,5^5-dimethyl-9-phenethyl-4-oxa-7,10-diaza-1(3,1)-piperidina-5(1,3)-benzenacyclotetradecaphane-8,11,14-trione] | < 100 | 500 to 1000 | < 100 | 1000 to 5000 |
